Patent US20230416791A1, “METHOD TO PRODUCE BRANCHED-CHAIN POLYHYDROXYALKANOATES AND BRANCHED-CHAIN 3-HYDROXYACIDS FROM GLUCOSE” (Alliance for Sustainable Energy, LLC, priority 2022, published 2023)

What was measured:
ΔmadB ΔfabH1 P. putida = test: Growth curves with straight-chain fatty acid supplementation (microplate reader); format: cell-based, Pseudomonas putida KT2440; conditions: fatty acid sodium salt at 100 μg/mL, modified M9 with glucose, 30° C.
Description: (§1) Microplate reader experiments. Microplate reader experiments were performed by inoculating seed cultures from glycerol stocks into 10 mL of LB Broth (Miller; Sigma-Aldrich) with appropriate antibiotics in a 125 mL flask and incubating overnight at 30° C. (P. putida) or 37° C. (E. coli) and 225 rpm. Overnight cultures were then used to inoculate a second seed culture into 10 mL of LB Broth (Miller; Sigma-Aldrich) with appropriate antibiotics in a 125 mL flask starting at an optical density of 0.2 measured at 600 nm (0D600) using a GENESYS™ 140 Visible Light Spectrophotometer (Thermo Scientific). The second seed cultures were incubated at 30° C. (P. putida) or 37° C. (E. coli) at 225 rpm for 2-4 hrs until an OD600 of approximately 2 was reached. The second seed cultures were centrifuged at 8,000 rpm for 3 min, the pellets were washed with 1× M9, minimal salts (Sigma-Aldrich) three times, and resuspended to an OD600=3.0. Cells (10 μL) were transferred to five replicate wells in a 100-well Honeycomb 2 plate (Growth Curves USA) containing 290 μL of growth medium, corresponding to initial OD600=0.1. E. coli strains were grown in LB Broth (Miller; Sigma-Aldrich) at 37° C. and supplemented with 50 μg/mL kanamycin and 0.1 mM isopropylthio-β-galactoside (IPTG; GoldBio) when appropriate. P. putida strains were grown in modified M9 minimal media containing 6.78 g/L Na2HPO4, 3 g/L KH2PO4, 1 g/L NH4C1, 0.5 g/L NaCl, 2 mM MgSO4, 100 μM CaCl2, and 2 g/L glucose at 30° C. For fatty acid supplementation experiments, sodium salts of a given fatty acid (Sigma-Aldrich) were added to a final concentration of 100 μg/mL. OD600 measurements were acquired every 15 min with a Bioscreen C Pro (Growth Curves USA) and plate was shaken continuously. Maximum specific growth rates were calculated using a spline model (https://github.com/scott-saunders/growth_curve_fitting).

[1] = test system: P. putida KT2440 ΔmadB ΔfabH1; test: Growth of P. putida ΔmadB ΔfabH1 supplemented with straight-chain fatty acids; format: cell-based, Pseudomonas putida KT2440; conditions: 100 μg/mL, modified M9 minimal medium, 30° C.
Description: as §1

MadB = test: Transformation of non-EcAcpP substrate by MadB (HPLC / LC-MS detection); format: biochemical, Pseudomonas putida KT2440; conditions: 1 mM substrate, 5 μM MadB, HEPES pH 7.5, room temperature
Description: Transformation of non-EcAcpP substrate by MadB. […] The reaction contained 1 mM of the alternate substrate and 5 μM of MadB in HEPES (I=0.1 M) pH 7.5 supplemented with 10 mM MgCl2 and 1 mM TCEP. The reaction was incubated at room temperature with an intermittent agitation for −1 hour prior to being passed through a 0.2 μm filter and frozen until further analysis.
Detection of various CoA analytes in the samples were performed on an Agilent 1200 HPLC system (Agilent Technologies) equipped with an Agilent 6120 mass spectrometer detector (MS). Each sample and standard were injected at a volume of 2 μL on a Phenomenex Luna C18(2)-HST column 100A′, […], 2.0×100 mm column (Phenomenex). The column temperature was maintained at 45° C. and the buffers used to separate the analytes of interest was 0.1% formic acid in water (A)/0.1% formic acid in acetonitrile (B). A gradient program was used to separate the analytes of interest: (A)=100% and (B)=0% at time t=0; (A)=100% and (B)=0% at t=1 min; (A)=50% and (B)=50% at t=7.65 min; (A)=30% and (B)=70% at t=9.33 min; (A)=30% and (B)=70% at t=10.67 min; (A)=100% and (B)=0% at t=10.68 min; (A)=100% and (B)=0% at t=13 min. The flow rate was held constant at 0.50 mL/min resulting in a run time of 13 minutes. The MS system was setup in positive electrospray ionization mode with a gas temperature of 350° C., drying gas at 12 L/min, nebulizer pressure set to 35 psig, and a Vcap voltage of 3000v. A total of four different masses in SIM mode from the MS detector were used to determine the presence and or absence of each analyte of interest. […] One standard from each analyte was used to determine the elution order and retention times of the compounds.
Detection of malonic and acetic acid was performed on an Agilent 1290 HPLC system (Agilent Technologies) equipped with an Agilent G7117A diode array detector (DAD). NREL's laboratory analytical procedure “Determination of Structural Carbohydrates and Lignin in Biomass” (Sluiter et al., 2012) HPLC method was used to detect the analytes of interest as outlined below. […]

[2] = target: T1, Pseudomonas putida KT2440 MadB (PP_0262) variant His46Ala (H46A) (Pseudomonas putida, UniProt Q88R72, H46A); test: ITC steady-state kinetics of malonyl-CoA decarboxylation
T1 sequence (Q88R72 1-151 H46A): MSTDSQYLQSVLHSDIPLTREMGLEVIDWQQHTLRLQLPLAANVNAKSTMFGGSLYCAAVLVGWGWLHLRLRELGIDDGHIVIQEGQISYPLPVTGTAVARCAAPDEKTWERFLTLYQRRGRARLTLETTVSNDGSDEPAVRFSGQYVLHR
Source text: (§2) Kinetic determination using ITC.
(§3) Both variants were purified similarly to the wild-type MadB.

[3] = target: T2, Pseudomonas putida KT2440 MadB (PP_0262) variant Asn45Ala (N45A) (Pseudomonas putida, UniProt Q88R72, N45A); test: as above
T2 sequence (Q88R72 1-151 N45A): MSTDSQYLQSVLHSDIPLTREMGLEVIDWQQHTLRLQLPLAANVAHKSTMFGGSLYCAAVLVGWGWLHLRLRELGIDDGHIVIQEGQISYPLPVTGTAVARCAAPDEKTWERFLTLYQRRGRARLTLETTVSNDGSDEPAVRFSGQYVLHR
Source text: as §2, §3

[4] = target: T3, Pseudomonas putida KT2440 MadB (PP_0262, malonyl-ACP decarboxylase), wild type (Pseudomonas putida, UniProt Q88R72); conditions: malonyl-CoA decarboxylation, ITC, 30° C., pH 7.5
T3 sequence (Q88R72 1-151): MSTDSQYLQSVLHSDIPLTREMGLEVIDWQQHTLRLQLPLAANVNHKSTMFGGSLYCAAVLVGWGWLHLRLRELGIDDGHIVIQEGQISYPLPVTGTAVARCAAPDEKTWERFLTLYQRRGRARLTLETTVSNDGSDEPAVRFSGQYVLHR

[5] = substrate: CC(C)(COP(=O)(O)OP(=O)(O)OC[C@H]1O[C@@H](n2cnc3c(N)ncnc32)[C@H](O)[C@@H]1OP(=O)(O)O)[C@@H](O)C(=O)NCCC(=O)NCCSC(=O)CC(=O)O; test: purified protein, by the assay type; conditions: other: malonyl-CoA decarboxylation, ITC, 30° C., pH 7.5
[6] = malonyl-CoA, His46Ala vs wild-type
[7] = malonyl-CoA, Asn45Ala vs wild-type

Molecule: CC(=O)O [C2]
- effect on growth of ΔmadB ΔfabH1 (ΔmadB ΔfabH1 P. putida): had no effect on growth
- effect of fatty acid supplementation on growth [1]: no effect on growth

Molecule: CCCC(=O)O [C4]
- effect on growth of ΔmadB ΔfabH1 (ΔmadB ΔfabH1 P. putida): inhibited
- effect of fatty acid supplementation on growth [1]: inhibited

Molecule: CCCCCC(=O)O [C6]
- effect on growth of ΔmadB ΔfabH1 (ΔmadB ΔfabH1 P. putida): appeared to improve growth, albeit less significantly
- effect of fatty acid supplementation on growth [1]: improve growth, albeit less significantly

Molecule: CCCCCCCC(=O)O [C8]
- effect on growth of ΔmadB ΔfabH1 (ΔmadB ΔfabH1 P. putida): dramatic improvement of growth
- effect of fatty acid supplementation on growth [1]: dramatic improvement of growth

Molecule: CCCCCCCCCC(=O)O [C10]
- effect on growth of ΔmadB ΔfabH1 (ΔmadB ΔfabH1 P. putida): dramatic improvement of growth
- effect of fatty acid supplementation on growth [1]: dramatic improvement of growth

Molecule: O=C(O)CC(=O)O [malonate]
- decarboxylation by MadB (MadB): not

Molecule: CC(C)(COP(=O)(O)OP(=O)(O)OC[C@H]1O[C@@H](n2cnc3c(N)ncnc32)[C@H](O)[C@@H]1OP(=O)(O)O)[C@@H](O)C(=O)NCCC(=O)NCCSC(=O)CC(=O)O [malonyl-CoA]
- Kcat ([2]; malonyl-CoA decarboxylation, His46Ala, ITC, 30° C., pH 7.5): 0.45 ± 0.01 s⁻¹
- Michaelis constant relative to wild-type [2, 6]: about half
- lower catalytic efficiency compared to the wild-type enzyme [2, 6]: 1.5 fold
- Kcat ([3]; malonyl-CoA decarboxylation, Asn45Ala, ITC, 30° C., pH 7.5): 0.06 ± 0.01 s⁻¹
- Michaelis constant relative to wild-type [3, 7]: about half
- lower catalytic efficiency compared to the wild-type enzyme [3, 7]: 13 fold
- decarboxylation by MadB (MadB): capable of decarboxylating
- Kcat [4]: 1.4 ± 0.1 s⁻¹

Molecule: CC(C(=O)O)C(=O)SCCNC(=O)CCNC(=O)[C@H](O)C(C)(C)COP(=O)(O)OP(=O)(O)OC[C@H]1O[C@@H](n2cnc3c(N)ncnc32)[C@H](O)[C@@H]1OP(=O)(O)O (stereo partly shown) [methylmalonyl-CoA]
- decarboxylation by MadB (MadB): capable of decarboxylating

B1: Pseudomonas putida KT2440 MadB (PP_0262, malonyl-ACP decarboxylase), wild type (Pseudomonas putida KT2440) (protein)
chain: MSTDSQYLQSVLHSDIPLTREMGLEVIDWQQHTLRLQLPLAANVNHKSTMFGGSLYCAAVLVGWGWLHLRLRELGIDDGHIVIQEGQISYPLPVTGTAVARCAAPDEKTWERFLTLYQRRGRARLTLETTVSNDGSDEPAVRFSGQYVLHR
- Km ([5]; wild-type MadB): 12 ± 1 mM
- kcat ([5]; wild-type MadB): 1.4 s⁻¹
- kcat/Km ([5]; wild-type MadB): 120 M⁻¹ s⁻¹

B2: Pseudomonas putida KT2440 MadB (PP_0262) variant His46Ala (H46A) (Pseudomonas putida KT2440; H46A) (protein)
chain: MSTDSQYLQSVLHSDIPLTREMGLEVIDWQQHTLRLQLPLAANVNAKSTMFGGSLYCAAVLVGWGWLHLRLRELGIDDGHIVIQEGQISYPLPVTGTAVARCAAPDEKTWERFLTLYQRRGRARLTLETTVSNDGSDEPAVRFSGQYVLHR
- Km ([5]; His46Ala): 5.7 ± 0.2 mM

B3: Pseudomonas putida KT2440 MadB (PP_0262) variant Asn45Ala (N45A) (Pseudomonas putida KT2440; N45A) (protein)
chain: MSTDSQYLQSVLHSDIPLTREMGLEVIDWQQHTLRLQLPLAANVAHKSTMFGGSLYCAAVLVGWGWLHLRLRELGIDDGHIVIQEGQISYPLPVTGTAVARCAAPDEKTWERFLTLYQRRGRARLTLETTVSNDGSDEPAVRFSGQYVLHR
- Km ([5]; Asn45Ala): 6.9 ± 0.5 mM
